Laboratory results reported in PubChem BioAssay (NCI).
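Test compounds were applied to cells in 96-well plates for 48 hours at 5 doses. TGI: concentration producing complete growth inhibition.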

Legend:
Assay in all cases: NCI-60 cell line screen, 48 h
T-47D breast = test system: T-47D breast
HCT-116 colon = test system: HCT-116 colon
NCI-H23 lung = test system: NCI-H23 lung
PC-3 prostate = test system: PC-3 prostate
HT29 colon = test system: HT29 colon
786-0 renal = test system: 786-0 renal
MCF7 breast = test system: MCF7 breast
SF-539 CNS = test system: SF-539 CNS
HOP-92 NSCLC = test system: HOP-92 NSCLC
HCC-2998 colon = test system: HCC-2998 colon
UACC-257 melanoma = test system: UACC-257 melanoma
MALME-3M melanoma = test system: MALME-3M melanoma
UO-31 renal = test system: UO-31 renal
M14 melanoma = test system: M14 melanoma
LOX IMVI melanoma = test system: LOX IMVI melanoma
MDA-MB-231 breast = test system: MDA-MB-231 breast
A549 NSCLC = test system: A549 NSCLC
SK-OV-3 ovarian = test system: SK-OV-3 ovarian
NCI-H522 lung = test system: NCI-H522 lung
HL-60(TB) leukemia = test system: HL-60(TB) leukemia
OVCAR-3 ovarian = test system: OVCAR-3 ovarian
OVCAR-4 ovarian = test system: OVCAR-4 ovarian
HOP-62 NSCLC = test system: HOP-62 NSCLC
SW-620 colon = test system: SW-620 colon
CAKI-1 renal = test system: CAKI-1 renal
MDA-N = test system: MDA-N
SF-268 CNS = test system: SF-268 CNS
SNB-19 CNS = test system: SNB-19 CNS
MOLT-4 leukemia = test system: MOLT-4 leukemia
SK-MEL-28 melanoma = test system: SK-MEL-28 melanoma
OVCAR-5 ovarian = test system: OVCAR-5 ovarian
K-562 leukemia = test system: K-562 leukemia
UACC-62 melanoma = test system: UACC-62 melanoma
A498 renal = test system: A498 renal
NCI-H460 lung = test system: NCI-H460 lung
U251 CNS = test system: U251 CNS
RXF 393 renal = test system: RXF 393 renal
COLO 205 colon = test system: COLO 205 colon
KM12 colon = test system: KM12 colon
OVCAR-8 ovarian = test system: OVCAR-8 ovarian
ACHN renal = test system: ACHN renal
NCI/ADR-RES ovarian = test system: NCI/ADR-RES ovarian
EKVX NSCLC = test system: EKVX NSCLC
BT-549 breast = test system: BT-549 breast
SN12C renal = test system: SN12C renal
SR leukemia = test system: SR leukemia
NCI-H226 lung = test system: NCI-H226 lung
HS 578T breast = test system: HS 578T breast
CCRF-CEM leukemia = test system: CCRF-CEM leukemia
TK-10 renal = test system: TK-10 renal
HCT-15 colon = test system: HCT-15 colon
SK-MEL-5 melanoma = test system: SK-MEL-5 melanoma
DU-145 prostate = test system: DU-145 prostate
IGROV1 ovarian = test system: IGROV1 ovarian
MDA-MB-435 = test system: MDA-MB-435
SF-295 CNS = test system: SF-295 CNS
SNB-75 CNS = test system: SNB-75 CNS
SK-MEL-2 melanoma = test system: SK-MEL-2 melanoma
RPMI-8226 leukemia = test system: RPMI-8226 leukemia

OCC(CN1CCCCC1)(CN1CCCCC1)CN1CCCCC1
TGI (T-47D breast): > 100 µM | TGI (HCT-116 colon): > 100 µM | TGI (NCI-H23 lung): > 100 µM | TGI (PC-3 prostate): > 100 µM | TGI (HT29 colon): > 100 µM | TGI (786-0 renal): > 100 µM | TGI (MCF7 breast): > 100 µM | TGI (SF-539 CNS): > 100 µM | TGI (HOP-92 NSCLC): > 100 µM | TGI (HCC-2998 colon): > 100 µM | TGI (UACC-257 melanoma): > 100 µM | TGI (MALME-3M melanoma): > 100 µM | TGI (UO-31 renal): > 100 µM | TGI (M14 melanoma): > 100 µM | TGI (LOX IMVI melanoma): > 100 µM | TGI (MDA-MB-231 breast): > 100 µM | TGI (A549 NSCLC): > 100 µM | TGI (SK-OV-3 ovarian): > 100 µM | TGI (NCI-H522 lung): > 100 µM | TGI (HL-60(TB) leukemia): > 100 µM | TGI (OVCAR-3 ovarian): > 100 µM | TGI (OVCAR-4 ovarian): > 100 µM | TGI (HOP-62 NSCLC): > 100 µM | TGI (SW-620 colon): > 100 µM | TGI (CAKI-1 renal): > 100 µM | TGI (MDA-N): > 100 µM | TGI (SF-268 CNS): > 100 µM | TGI (SNB-19 CNS): > 100 µM | TGI (MOLT-4 leukemia): > 100 µM | TGI (SK-MEL-28 melanoma): > 100 µM | TGI (OVCAR-5 ovarian): > 100 µM | TGI (K-562 leukemia): > 100 µM | TGI (UACC-62 melanoma): > 100 µM | TGI (A498 renal): > 100 µM | TGI (NCI-H460 lung): > 100 µM | TGI (U251 CNS): > 100 µM | TGI (RXF 393 renal): > 100 µM | TGI (COLO 205 colon): > 100 µM | TGI (KM12 colon): > 100 µM | TGI (OVCAR-8 ovarian): > 100 µM | TGI (ACHN renal): > 100 µM | TGI (NCI/ADR-RES ovarian): > 100 µM | TGI (EKVX NSCLC): > 100 µM | TGI (BT-549 breast): > 100 µM | TGI (SN12C renal): > 100 µM | TGI (SR leukemia): > 100 µM | TGI (NCI-H226 lung): > 100 µM | TGI (HS 578T breast): > 100 µM | TGI (CCRF-CEM leukemia): > 100 µM | TGI (TK-10 renal): > 100 µM | TGI (HCT-15 colon): > 100 µM | TGI (SK-MEL-5 melanoma): > 100 µM | TGI (DU-145 prostate): > 100 µM | TGI (IGROV1 ovarian): > 100 µM | TGI (MDA-MB-435): > 100 µM

N#Cc1c(-c2ccc(Cl)cc2)cc(-c2ccc(Nc3ccnc4cc(C(F)(F)F)ccc34)cc2)[nH]c1=O
TGI (T-47D breast): 14.8 µM | TGI (HCT-116 colon): > 44 µM | TGI (NCI-H23 lung): > 100 µM | TGI (PC-3 prostate): > 100 µM | TGI (HT29 colon): > 48.9 µM | TGI (786-0 renal): 24.9 µM | TGI (MCF7 breast): > 100 µM | TGI (SF-539 CNS): 18.5 µM | TGI (HOP-92 NSCLC): 32.7 µM | TGI (HCC-2998 colon): > 100 µM | TGI (UACC-257 melanoma): > 100 µM | TGI (MALME-3M melanoma): > 100 µM | TGI (M14 melanoma): 13.9 µM | TGI (LOX IMVI melanoma): > 23.5 µM | TGI (MDA-MB-231 breast): 65.8 µM | TGI (A549 NSCLC): > 100 µM | TGI (SK-OV-3 ovarian): 73.1 µM | TGI (NCI-H522 lung): > 100 µM | TGI (HL-60(TB) leukemia): 35 µM | TGI (OVCAR-3 ovarian): 20.6 µM | TGI (OVCAR-4 ovarian): 24.2 µM | TGI (HOP-62 NSCLC): > 57.7 µM | TGI (SW-620 colon): > 84.2 µM | TGI (CAKI-1 renal): > 64.3 µM | TGI (MDA-N): 11.9 µM | TGI (SF-268 CNS): > 100 µM | TGI (SNB-19 CNS): 34.3 µM | TGI (MOLT-4 leukemia): 20.7 µM | TGI (SK-MEL-28 melanoma): > 34.6 µM | TGI (OVCAR-5 ovarian): > 65 µM | TGI (K-562 leukemia): 15.6 µM | TGI (SF-295 CNS): > 87.1 µM | TGI (UACC-62 melanoma): 39.6 µM | TGI (A498 renal): > 89.6 µM | TGI (NCI-H460 lung): > 100 µM | TGI (U251 CNS): > 100 µM | TGI (RXF 393 renal): 22.6 µM | TGI (COLO 205 colon): 59.4 µM | TGI (SNB-75 CNS): > 50 µM | TGI (KM12 colon): > 100 µM | TGI (OVCAR-8 ovarian): > 100 µM | TGI (ACHN renal): > 100 µM | TGI (SK-MEL-2 melanoma): > 100 µM | TGI (RPMI-8226 leukemia): > 73.7 µM | TGI (NCI/ADR-RES ovarian): > 100 µM | TGI (EKVX NSCLC): > 100 µM | TGI (BT-549 breast): 35.5 µM | TGI (SN12C renal): > 100 µM | TGI (SR leukemia): 8.93 µM | TGI (NCI-H226 lung): > 100 µM | TGI (HS 578T breast): > 100 µM | TGI (CCRF-CEM leukemia): 11 µM | TGI (TK-10 renal): 63.2 µM | TGI (HCT-15 colon): > 100 µM | TGI (SK-MEL-5 melanoma): > 53.4 µM | TGI (DU-145 prostate): > 48.5 µM | TGI (IGROV1 ovarian): > 100 µM | TGI (MDA-MB-435): 10.2 µM
